Values of other authors in EP4115885A1 (Charité - Universitätsmedizin Berlin, priority 2021, dated 2023).

What was measured:
[1] = human, in vivo

SMILES: C[C@@H]1CN(Cc2ccc(F)cc2)CCN1C(=O)COc1ccc(Cl)cc1NC(N)=O [BAY 86-5277, N-[5-chloro-2-[2-[(2R)-4-[(4-fluorophenyl)methyl]-2-methyl-1-piperazinyl]-2-oxoethoxy]phenyl]-urea]
- effect of blockade of CCR1 (model of sepsis): beneficial
- tolerability [1]: generally well tolerated
